For the assay, the system named is HCV subgenomic RNA replicon in Huh-7 human hepatoma cell line. As to the kind of experiment: HCV RNA replication inhibitory activity in HCV replicon (subgenomic RNA replicon) cell line. It is filed as cell-based, HCV-1b Hepatitis C virus. The conditions noted are these: Huh-7 cells harboring HCV-1b subgenomic replicon, 72 hours, RT-PCR. The method, then:
To screen a compound that is capable of inhibiting HCV replication, each compound was added to Huh-7 human hepatoma cell line harboring HCV RNA replicon, followed by culture. Then, expression level of HCV RNA was quantified and its inhibitory activity was measured. HCV replicon used in this invention was derived from HCV-1b Hepatitis C virus gene that was bicistronic replicon composed of HCV IRES, neomycin resistant gene, EMCV (encephalomyocarditis virus) IRES. HCV non-structural proteins were composed of the sequences comprising NS3-NS5B and HCV 3′end. An expression vector harboring HCV replicon proceeded to in vitro transcription, and the obtained HCV replicon was transfected into the Huh-7 cells by electroporation. To select only those cells having HCV replicon, Huh-7 cells were cultured with medium containing the antibiotic G418 (500 μg/ml). The selected cells were cultured with DMEM (Dulbecco's modified Eagles media) containing 10% FBS, non-essential amino acids and 500 μg/ml of G418.
Huh-7 cells harboring HCV subgenomic RNA replicon were cultured overnight in 6 well plate (3×10^5 cells/well), at 37° C. and 5% CO2 with DMEM containing 10% FBS, non-essential amino acids and 500 μg/ml of G418. Medium of each well was replaced with DMEM containing 2% FBS, non-essential amino acids and 500 μg/ml of G418. Test compound was dissolved in DMSO, which was added to each well at different concentrations, followed by culture in a 5% CO2 incubator at 37° C. for 72 hours. Equal amount of DMSO (negative control) and Interferon-α (positive control) were added as controls. Upon completion of the culture, medium of each well was eliminated, followed by washing with 1 ml of PBS. 250 μl/well of trypsin/EDTA was added thereto and cells were separated from the plate and washed with PBS again to eliminate medium. Total RNA was isolated from the cells by using SV total RNA isolation system (Promega corporation), followed by quantification using GeneQuant pro (Amersham bioscience). EC50 against HCV replicon of each compound was investigated by RT-PCR and the result was compared with those of controls. RT-PCR was performed with the primer targeting HCV 1b NS5B region and by AccessQuick™ RT-PCR system (Promega corporation). To obtain more accurate EC50 values, quantitative real-time PCR was performed along with RT-PCR. cDNA was obtained from the isolated RNA by using Reverse transcription system (Promega corporation), followed by quantitative real-time PCR using iQ SYBR Green Supermix (Bio-rad). At the same time, one-step real time RT-PCR was performed using Taqman probe to investigate the inhibitory activity of each compound. At this time, the primer targeting HCV 5′-UTR was used and GAPDH (Glyceraldehyde-3-phosphate dehydrogenase) gene was used as a reference gene for correction. Real time RT-PCR was performed by using iCycler iQ5 system (Bio-rad). The EC50 value was calculated by iCycler iQ5 optical system software (Bio-rad) program to determine the inhibitory activity. HCV replicon inhibitory activity of saponin components of Platycodon grandiflorum, the roots extract of Platycodon grandiflorum and the composition containing the same of the present invention and sapogenin and prosapogenin is shown in Table 7 and Table 8.
On the technique in general: In antiviral work, replicon cells carry a viral genome segment that copies itself.
Consider “2″-O-acetyl-deapiopolygalacin D2 [Compound 11]”, for which the “Inhibitory Activity EC50 (HCV RNA replication inhibitory activity of saponin components)” value (“Inhibitory Activity EC50” for short) is greater than 10 µg/mL. As to “2″-O-acetyl-polygalacin D2 [Compound 12]”, the “Inhibitory Activity EC50” value is 1 µg/mL. For the compound `C[C@@H]1O[C@@H](O[C@H]2[C@H](OC(=O)[C@]34CCC(C)(C)C[C@H]3C3=CC[C@@H]5[C@@]6(C)C[C@H](O)[C@H](O[C@@H]7O[C@H](CO[C@@H]8O[C@H](CO[C@@H]9O[C@H](CO)[C@@H](O)[C@H](O)[C@H]9O)[C@@H](O)[C@H](O)[C@H]8O)[C@@H](O)[C@H](O)[C@H]7O)C(CO)(CO)[C@@H]6CC[C@@]5(C)[C@]3(C)C[C@H]4O)OC[C@H](O)[C@@H]2O)[C@H](O)[C@H](O)[C@H]1O[C@@H]1OC[C@@H](O)[C@H](O)[C@H]1O` [Compound 1, deapioplatycoside E], the “Inhibitory Activity EC50” value is greater than 10 µg/mL. The value for `C[C@@H]1O[C@@H](O[C@H]2[C@H](OC(=O)[C@]34CCC(C)(C)C[C@H]3C3=CC[C@@H]5[C@@]6(C)C[C@H](O)[C@H](O[C@@H]7O[C@H](CO[C@@H]8O[C@H](CO[C@@H]9O[C@H](CO)[C@@H](O)[C@H](O)[C@H]9O)[C@@H](O)[C@H](O)[C@H]8O)[C@@H](O)[C@H](O)[C@H]7O)C(CO)(CO)[C@@H]6CC[C@@]5(C)[C@]3(C)C[C@H]4O)OC[C@H](O)[C@@H]2O)[C@H](O)[C@H](O)[C@H]1O[C@@H]1OC[C@@H](O)[C@H](O[C@@H]2OC[C@](O)(CO)[C@H]2O)[C@H]1O` [Compound 2, platycoside E] was 0.7 µg/mL; that for `CC1OC(OC2C(OC(=O)C34CCC(C)(C)CC3C3=CCC5C6(C)CC(O)C(OC7OC(COC8OC(CO)C(O)C(O)C8O)C(O)C(O)C7O)C(CO)(CO)C6CCC5(C)C3(C)CC4O)OCC(O)C2O)C(O)C(O)C1OC1OCC(O)C(OC2OCC(O)(CO)C2O)C1O` (stereo not shown) [Compound 3, platycodin D3] was 0.2 µg/mL. Under `C[C@@H]1O[C@@H](O[C@H]2[C@H](OC(=O)[C@]34CCC(C)(C)C[C@H]3C3=CC[C@@H]5[C@@]6(C)C[C@H](O)[C@H](O[C@@H]7O[C@H](CO)[C@@H](O)[C@H](O[C@@H]8O[C@H](CO)[C@@H](O)[C@H](O)[C@H]8O)[C@H]7O)[C@@](C)(CO)[C@@H]6CC[C@@]5(C)[C@]3(C)C[C@H]4O)OC[C@H](O)[C@@H]2O)[C@H](O)[C@H](O)[C@H]1O[C@@H]1OC[C@@H](O)[C@H](O[C@@H]2OC[C@](O)(CO)[C@H]2O)[C@H]1O` [Compound 4, polygalacin D2] stands greater than 10 µg/mL. Under `C[C@@H]1O[C@@H](O[C@H]2[C@H](OC(=O)[C@]34CCC(C)(C)C[C@H]3C3=CC[C@@H]5[C@@]6(C)C[C@H](O)[C@H](O[C@@H]7O[C@H](CO)[C@@H](O)[C@H](O)[C@H]7O)[C@@](C)(CO)[C@@H]6CC[C@@]5(C)[C@]3(C)C[C@H]4O)OC[C@H](O)[C@@H]2O)[C@H](O)[C@H](O)[C@H]1O[C@@H]1OC[C@@H](O)[C@H](O[C@@H]2OC[C@](O)(CO)[C@H]2O)[C@H]1O` [Compound 5, polygalacin D] stands 0.8 µg/mL. As to `C[C@@H]1O[C@@H](O[C@H]2[C@H](OC(=O)[C@]34CCC(C)(C)C[C@H]3C3=CC[C@@H]5[C@@]6(C)C[C@H](O)[C@H](O[C@@H]7O[C@H](CO)[C@@H](O)[C@H](O)[C@H]7O)[C@](CO)(C(=O)O)[C@@H]6CC[C@@]5(C)[C@]3(C)C[C@H]4O)OC[C@H](O)[C@@H]2O)[C@H](O)[C@H](O)[C@H]1O[C@@H]1OC[C@@H](O)[C@H](O[C@@H]2OC[C@](O)(CO)[C@H]2O)[C@H]1O` [Compound 6, platyconic acid A], the “Inhibitory Activity EC50” value is 0.2 µg/mL. As to `C[C@@H]1O[C@@H](O[C@H]2[C@H](OC(=O)[C@]34CCC(C)(C)C[C@H]3C3=CC[C@@H]5[C@@]6(C)C[C@H](O)[C@H](O[C@@H]7O[C@H](CO)[C@@H](O)[C@H](O[C@@H]8O[C@H](CO)[C@@H](O)[C@H](O)[C@H]8O)[C@H]7O)C(CO)(CO)[C@@H]6CC[C@@]5(C)[C@]3(C)C[C@H]4O)OC[C@H](O)[C@@H]2O)[C@H](O)[C@H](O)[C@H]1O[C@@H]1OC[C@@H](O)[C@H](O)[C@H]1O` [Compound 7, deapioplatycodin D2], the “Inhibitory Activity EC50” value was found to be 0.2 µg/mL. The value for `C[C@@H]1O[C@@H](O[C@H]2[C@H](OC(=O)[C@]34CCC(C)(C)C[C@H]3C3=CC[C@@H]5[C@@]6(C)C[C@H](O)[C@H](O[C@@H]7O[C@H](CO)[C@@H](O)[C@H](O[C@@H]8O[C@H](CO)[C@@H](O)[C@H](O)[C@H]8O)[C@H]7O)C(CO)(CO)[C@@H]6CC[C@@]5(C)[C@]3(C)C[C@H]4O)OC[C@H](O)[C@@H]2O)[C@H](O)[C@H](O)[C@H]1O[C@@H]1OC[C@@H](O)[C@H](O[C@@H]2OC[C@](O)(CO)[C@H]2O)[C@H]1O` [Compound 8, platycodin D2] was 0.1 µg/mL; that for `C[C@@H]1O[C@@H](O[C@H]2[C@H](OC(=O)[C@]34CCC(C)(C)C[C@H]3C3=CC[C@@H]5[C@@]6(C)C[C@H](O)[C@H](O[C@@H]7O[C@H](CO)[C@@H](O)[C@H](O)[C@H]7O)C(CO)(CO)[C@@H]6CC[C@@]5(C)[C@]3(C)C[C@H]4O)OC[C@H](O)[C@@H]2O)[C@H](O)[C@H](O)[C@H]1O[C@@H]1OC[C@@H](O)[C@H](O)[C@H]1O` [Compound 9, deapioplatycodin D] was 0.2 µg/mL. Under `C[C@@H]1O[C@@H](O[C@H]2[C@H](OC(=O)[C@]34CCC(C)(C)C[C@H]3C3=CC[C@@H]5[C@@]6(C)C[C@H](O)[C@H](O[C@@H]7O[C@H](CO)[C@@H](O)[C@H](O)[C@H]7O)C(CO)(CO)[C@@H]6CC[C@@]5(C)[C@]3(C)C[C@H]4O)OC[C@H](O)[C@@H]2O)[C@H](O)[C@H](O)[C@H]1O[C@@H]1OC[C@@H](O)[C@H](O[C@@H]2OC[C@](O)(CO)[C@H]2O)[C@H]1O` [Compound 10, platycodin D] stands 0.1 µg/mL; under `CC1(C)CC[C@]2(C(=O)O)[C@H](O)C[C@]3(C)C(=CC[C@@H]4[C@@]5(C)C[C@H](O)[C@H](O)C(CO)(CO)[C@@H]5CC[C@]43C)[C@@H]2C1` [Compound 14, platycodigenin], greater than 10 µg/mL. For the compound `CC1(C)CCC2(C(=O)O)C(O)CC3(C)C(=CCC4C5(C)CC(O)C(O)C(C)(CO)C5CCC43C)C2C1` (stereo not shown) [Compound 15, polygalacic acid], the “Inhibitory Activity EC50” value was 2 µg/mL. For the compound `COC(=O)C12CCC(C)(C)CC1C1=CCC3C4(C)CC(O)C(OC5OC(CO)C(O)C(O)C5O)C(CO)(CO)C4CCC3(C)C1(C)CC2O` (stereo not shown) [Compound 18, platycodigenin 3-O-glucopyranoside 28-methyl ester], the “Inhibitory Activity EC50” value was greater than 10 µg/mL.

In the case of `COC(=O)C12CCC(C)(C)CC1C1=CCC3C4(C)CC(O)C(OC5OC(CO)C(O)C(OC6OC(CO)C(O)C(O)C6O)C5O)C(CO)(CO)C4CCC3(C)C1(C)CC2O` (stereo not shown) [Compound 19, platycodigenin 3-O-laminaribioside 28-methyl ester], the “Inhibitory Activity EC50” value was greater than 10 µg/mL. The value for “platycogenic acid A lactone 3-O-glucopyranoside [Compound 17]” was 2 µg/mL. The value for “platycogenic acid A lactone [Compound 16]” was 0.4 µg/mL; that for “platyconic acid A methyl ester [Compound 13]” was 5 µg/mL.

These data come from patent US20110274656A1, “PHARMACEUTICAL COMPOSITION FOR PREVENTING OR TREATING HEPATITIS C, COMPRISING THE ROOTS EXTRACT OF PLATYCODON GRANDIFLORUM OR PLATYCODON GRANDIFLORUM SAPONIN COMPONENTS” (B&C Biopharm Co., Ltd., priority 2009, published 2011).
